The structures appear in SMILES notation.

Test [1] concerns the target Rho-associated protein kinase 2 (Homo sapiens) (UniProt O75116). Description: Inhibition of ROCK2 (unknown origin) at 10 uM after 120 mins P33 radiolabeled kinase activity assay.
The target in test [2] is T1, Serine/threonine-protein kinase Chk1 (Homo sapiens) (UniProt O14757).
T1 sequence (whole entry): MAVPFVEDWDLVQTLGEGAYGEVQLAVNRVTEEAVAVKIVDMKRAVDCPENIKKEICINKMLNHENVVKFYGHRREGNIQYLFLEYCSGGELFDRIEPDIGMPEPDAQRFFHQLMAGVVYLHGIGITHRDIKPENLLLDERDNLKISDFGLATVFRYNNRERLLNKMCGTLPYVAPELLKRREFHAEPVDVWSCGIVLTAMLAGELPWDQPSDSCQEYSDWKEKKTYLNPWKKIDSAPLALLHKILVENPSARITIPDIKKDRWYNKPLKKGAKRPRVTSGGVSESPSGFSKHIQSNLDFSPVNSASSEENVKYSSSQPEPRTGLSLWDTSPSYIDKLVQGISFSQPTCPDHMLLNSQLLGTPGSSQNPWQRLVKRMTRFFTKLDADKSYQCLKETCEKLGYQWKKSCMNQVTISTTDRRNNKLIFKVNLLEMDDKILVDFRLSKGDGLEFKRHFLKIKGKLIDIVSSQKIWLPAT
Description: Inhibition of CHK1 (unknown origin) at 10 uM after 120 mins P33 radiolabeled kinase activity assay.

Test [3] has as its target Ephrin type-A receptor 5 (Homo sapiens) (UniProt P54756). Briefly: Inhibition of EPHA5 (unknown origin) at 10 uM after 120 mins P33 radiolabeled kinase activity assay.
For test [4], the target named is T2, Testis-specific serine/threonine-protein kinase 3 (Homo sapiens) (UniProt Q96PN8).
T2 sequence (whole entry): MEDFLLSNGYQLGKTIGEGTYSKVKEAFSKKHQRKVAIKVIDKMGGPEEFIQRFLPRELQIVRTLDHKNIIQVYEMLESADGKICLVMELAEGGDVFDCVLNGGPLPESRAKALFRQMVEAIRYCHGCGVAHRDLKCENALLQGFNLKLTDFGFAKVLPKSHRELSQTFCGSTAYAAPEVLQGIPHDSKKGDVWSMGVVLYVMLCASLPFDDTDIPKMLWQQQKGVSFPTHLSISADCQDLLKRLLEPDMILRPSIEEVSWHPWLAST
Description: Inhibition of TSSK3 (unknown origin) at 10 uM after 120 mins P33 radiolabeled kinase activity assay.

Test [5] deals with Tyrosine-protein kinase Fgr (Homo sapiens) (UniProt P09769). Briefly: Inhibition of FGR (unknown origin) at 10 uM after 120 mins P33 radiolabeled kinase activity assay.
Test [6] addresses T3, Serine/threonine-protein kinase TAO1 (Homo sapiens) (UniProt Q7L7X3).
T3 sequence (whole entry): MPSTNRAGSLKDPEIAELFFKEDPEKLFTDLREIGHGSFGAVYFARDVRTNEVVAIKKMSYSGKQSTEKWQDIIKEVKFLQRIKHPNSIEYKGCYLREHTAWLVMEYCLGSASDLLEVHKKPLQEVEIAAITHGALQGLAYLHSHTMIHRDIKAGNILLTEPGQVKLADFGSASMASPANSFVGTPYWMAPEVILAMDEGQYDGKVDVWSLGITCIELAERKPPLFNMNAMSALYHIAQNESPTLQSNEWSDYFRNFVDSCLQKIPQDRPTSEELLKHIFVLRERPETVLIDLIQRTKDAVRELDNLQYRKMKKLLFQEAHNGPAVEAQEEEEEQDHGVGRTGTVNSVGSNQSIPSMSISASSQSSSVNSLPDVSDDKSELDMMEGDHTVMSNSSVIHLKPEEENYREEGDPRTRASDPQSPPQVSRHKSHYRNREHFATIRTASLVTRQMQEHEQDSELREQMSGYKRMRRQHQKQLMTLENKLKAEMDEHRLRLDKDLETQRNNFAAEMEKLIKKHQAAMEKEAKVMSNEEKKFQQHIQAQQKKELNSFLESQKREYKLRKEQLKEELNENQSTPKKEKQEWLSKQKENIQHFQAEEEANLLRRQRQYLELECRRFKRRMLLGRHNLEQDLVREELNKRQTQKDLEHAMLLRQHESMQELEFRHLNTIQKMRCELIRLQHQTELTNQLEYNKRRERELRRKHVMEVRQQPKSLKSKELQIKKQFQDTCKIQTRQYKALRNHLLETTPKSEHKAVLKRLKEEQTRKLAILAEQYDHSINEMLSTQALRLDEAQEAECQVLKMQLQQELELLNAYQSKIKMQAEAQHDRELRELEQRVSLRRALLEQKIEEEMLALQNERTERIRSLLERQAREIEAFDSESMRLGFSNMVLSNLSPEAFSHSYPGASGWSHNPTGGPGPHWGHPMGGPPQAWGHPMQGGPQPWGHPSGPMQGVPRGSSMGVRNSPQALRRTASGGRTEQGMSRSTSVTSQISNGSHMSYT
Description: Inhibition of TAOK1 (unknown origin) at 10 uM after 120 mins P33 radiolabeled kinase activity assay.

Test [7] has as its target Tyrosine-protein kinase Lyn (Homo sapiens) (UniProt P07948). Briefly: Inhibition of LYN B (unknown origin) at 10 uM after 120 mins P33 radiolabeled kinase activity assay.
For test [8], the target named is T4, Myosin light chain kinase (Homo sapiens) (UniProt Q32MK0).
T4 sequence (whole entry): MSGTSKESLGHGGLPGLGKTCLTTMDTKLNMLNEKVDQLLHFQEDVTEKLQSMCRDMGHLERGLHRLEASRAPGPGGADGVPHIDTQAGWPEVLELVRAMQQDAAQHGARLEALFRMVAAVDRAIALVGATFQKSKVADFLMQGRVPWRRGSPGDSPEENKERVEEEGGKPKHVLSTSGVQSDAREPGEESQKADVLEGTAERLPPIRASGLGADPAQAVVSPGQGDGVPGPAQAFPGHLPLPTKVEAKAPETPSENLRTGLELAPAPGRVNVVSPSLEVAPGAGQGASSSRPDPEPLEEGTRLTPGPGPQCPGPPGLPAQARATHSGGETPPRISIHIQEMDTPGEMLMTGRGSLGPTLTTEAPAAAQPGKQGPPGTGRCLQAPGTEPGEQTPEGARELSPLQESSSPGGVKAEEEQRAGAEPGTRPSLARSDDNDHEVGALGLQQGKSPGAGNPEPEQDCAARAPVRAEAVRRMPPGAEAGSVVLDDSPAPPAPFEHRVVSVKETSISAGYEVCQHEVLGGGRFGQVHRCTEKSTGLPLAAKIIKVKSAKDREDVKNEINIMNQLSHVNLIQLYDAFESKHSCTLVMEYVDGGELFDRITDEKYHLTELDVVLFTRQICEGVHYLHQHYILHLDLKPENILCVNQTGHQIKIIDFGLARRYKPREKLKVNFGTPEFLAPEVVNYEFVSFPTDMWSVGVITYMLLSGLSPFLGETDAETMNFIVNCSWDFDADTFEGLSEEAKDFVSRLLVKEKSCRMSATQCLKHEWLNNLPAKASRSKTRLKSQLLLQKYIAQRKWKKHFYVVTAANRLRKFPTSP
Briefly: Inhibition of MYLK3 (unknown origin) at 10 uM after 120 mins P33 radiolabeled kinase activity assay.

Sequence of Ephrin type-A receptor 5 (Homo sapiens) (P54756 whole entry): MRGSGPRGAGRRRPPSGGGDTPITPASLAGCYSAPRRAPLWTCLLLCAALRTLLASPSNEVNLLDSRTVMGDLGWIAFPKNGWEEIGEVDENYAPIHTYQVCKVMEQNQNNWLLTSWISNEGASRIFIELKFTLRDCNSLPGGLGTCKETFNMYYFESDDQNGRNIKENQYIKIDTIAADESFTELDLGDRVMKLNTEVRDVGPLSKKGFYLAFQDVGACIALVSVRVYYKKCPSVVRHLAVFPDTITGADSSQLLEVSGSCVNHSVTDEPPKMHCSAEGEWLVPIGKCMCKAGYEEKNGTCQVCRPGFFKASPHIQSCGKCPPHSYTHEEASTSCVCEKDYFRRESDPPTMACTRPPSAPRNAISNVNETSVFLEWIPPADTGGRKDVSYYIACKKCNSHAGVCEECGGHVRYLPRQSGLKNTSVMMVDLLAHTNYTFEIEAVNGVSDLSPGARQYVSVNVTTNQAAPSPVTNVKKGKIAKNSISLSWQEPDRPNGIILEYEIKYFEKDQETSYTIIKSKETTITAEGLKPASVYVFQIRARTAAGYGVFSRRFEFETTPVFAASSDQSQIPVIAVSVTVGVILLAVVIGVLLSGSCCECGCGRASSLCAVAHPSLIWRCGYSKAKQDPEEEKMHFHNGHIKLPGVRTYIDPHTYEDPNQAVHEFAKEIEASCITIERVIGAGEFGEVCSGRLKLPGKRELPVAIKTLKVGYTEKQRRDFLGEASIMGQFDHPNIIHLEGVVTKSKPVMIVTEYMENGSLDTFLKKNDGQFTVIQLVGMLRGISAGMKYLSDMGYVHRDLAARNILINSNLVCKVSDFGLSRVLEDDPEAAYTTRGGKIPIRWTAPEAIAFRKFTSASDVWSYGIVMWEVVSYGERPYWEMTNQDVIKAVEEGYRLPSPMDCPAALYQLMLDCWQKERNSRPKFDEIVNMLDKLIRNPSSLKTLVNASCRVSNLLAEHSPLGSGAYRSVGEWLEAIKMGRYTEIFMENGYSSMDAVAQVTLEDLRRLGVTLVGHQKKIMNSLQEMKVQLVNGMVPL
Sequence of Rho-associated protein kinase 2 (Homo sapiens) (O75116 whole entry, looked up): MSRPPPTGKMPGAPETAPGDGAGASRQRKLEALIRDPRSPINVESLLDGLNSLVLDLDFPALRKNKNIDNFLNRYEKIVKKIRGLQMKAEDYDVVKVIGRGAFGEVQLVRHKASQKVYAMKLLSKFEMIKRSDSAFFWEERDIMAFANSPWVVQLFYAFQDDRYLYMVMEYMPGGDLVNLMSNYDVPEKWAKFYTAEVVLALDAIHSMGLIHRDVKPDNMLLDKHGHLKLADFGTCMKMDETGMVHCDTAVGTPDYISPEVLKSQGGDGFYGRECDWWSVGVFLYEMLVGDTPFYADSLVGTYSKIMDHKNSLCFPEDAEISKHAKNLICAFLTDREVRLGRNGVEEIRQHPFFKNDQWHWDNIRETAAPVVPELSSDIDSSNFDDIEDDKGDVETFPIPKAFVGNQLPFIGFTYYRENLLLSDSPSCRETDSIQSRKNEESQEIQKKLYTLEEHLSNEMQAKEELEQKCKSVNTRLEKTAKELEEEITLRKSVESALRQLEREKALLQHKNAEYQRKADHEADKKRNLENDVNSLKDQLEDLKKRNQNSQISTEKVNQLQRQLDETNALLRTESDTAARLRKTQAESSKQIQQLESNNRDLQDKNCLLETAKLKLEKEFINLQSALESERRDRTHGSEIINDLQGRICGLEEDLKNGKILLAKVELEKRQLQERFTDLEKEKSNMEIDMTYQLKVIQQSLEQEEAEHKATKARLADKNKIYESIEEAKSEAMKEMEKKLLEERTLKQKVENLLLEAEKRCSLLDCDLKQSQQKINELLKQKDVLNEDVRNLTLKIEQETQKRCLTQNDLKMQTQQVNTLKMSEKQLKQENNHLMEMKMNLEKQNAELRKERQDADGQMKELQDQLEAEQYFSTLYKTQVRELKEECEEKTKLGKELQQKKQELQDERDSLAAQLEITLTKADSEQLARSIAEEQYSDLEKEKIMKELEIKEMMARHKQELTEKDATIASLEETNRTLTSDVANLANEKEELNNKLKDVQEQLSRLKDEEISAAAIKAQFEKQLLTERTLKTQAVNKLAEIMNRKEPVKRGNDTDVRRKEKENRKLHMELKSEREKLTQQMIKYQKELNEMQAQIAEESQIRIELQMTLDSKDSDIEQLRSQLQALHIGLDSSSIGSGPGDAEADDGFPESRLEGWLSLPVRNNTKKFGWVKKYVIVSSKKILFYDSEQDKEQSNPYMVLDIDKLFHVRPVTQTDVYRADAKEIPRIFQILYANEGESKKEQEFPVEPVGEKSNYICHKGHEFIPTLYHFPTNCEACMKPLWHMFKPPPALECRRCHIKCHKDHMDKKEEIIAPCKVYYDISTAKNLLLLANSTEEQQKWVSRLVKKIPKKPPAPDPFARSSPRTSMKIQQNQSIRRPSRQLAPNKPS
Sequence of Tyrosine-protein kinase Fgr (Homo sapiens) (P09769 2-529 limits assumed): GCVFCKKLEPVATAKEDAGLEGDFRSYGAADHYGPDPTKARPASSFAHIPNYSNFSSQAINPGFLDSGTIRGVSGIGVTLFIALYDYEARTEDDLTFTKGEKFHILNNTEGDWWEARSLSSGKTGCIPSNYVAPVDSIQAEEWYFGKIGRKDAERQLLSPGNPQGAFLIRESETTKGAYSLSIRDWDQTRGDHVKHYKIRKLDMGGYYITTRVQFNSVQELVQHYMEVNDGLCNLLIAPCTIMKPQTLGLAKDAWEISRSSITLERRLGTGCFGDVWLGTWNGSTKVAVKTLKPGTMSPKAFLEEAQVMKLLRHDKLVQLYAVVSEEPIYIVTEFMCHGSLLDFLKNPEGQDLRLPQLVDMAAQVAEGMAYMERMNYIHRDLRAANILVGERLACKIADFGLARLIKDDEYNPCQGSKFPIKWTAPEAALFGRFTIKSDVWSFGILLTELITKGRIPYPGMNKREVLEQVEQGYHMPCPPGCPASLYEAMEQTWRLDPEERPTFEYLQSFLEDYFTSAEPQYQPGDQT
Sequence of Tyrosine-protein kinase Lyn (Homo sapiens) (P07948 2-512 limits assumed): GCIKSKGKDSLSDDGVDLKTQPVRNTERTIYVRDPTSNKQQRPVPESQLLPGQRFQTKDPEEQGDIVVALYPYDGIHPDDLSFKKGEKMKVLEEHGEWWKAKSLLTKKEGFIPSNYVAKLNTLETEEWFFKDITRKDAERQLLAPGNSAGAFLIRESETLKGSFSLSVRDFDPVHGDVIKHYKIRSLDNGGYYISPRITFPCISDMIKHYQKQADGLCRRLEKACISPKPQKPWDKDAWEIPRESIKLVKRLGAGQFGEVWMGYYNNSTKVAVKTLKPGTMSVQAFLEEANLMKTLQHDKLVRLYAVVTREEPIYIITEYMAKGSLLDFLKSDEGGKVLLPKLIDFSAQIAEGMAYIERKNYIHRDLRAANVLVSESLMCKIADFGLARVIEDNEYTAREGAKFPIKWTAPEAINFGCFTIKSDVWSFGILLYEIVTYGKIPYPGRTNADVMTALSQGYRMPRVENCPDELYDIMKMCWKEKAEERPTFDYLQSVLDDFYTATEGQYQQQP

Usually inhibition stands for the drop in the measured response relative to a control, in per cent. Consider `COCCNC(=O)c1ccc2c(c1)nc(-c1cnc(-c3ccc(Cl)cc3)[nH]1)n2CCOC`, for which the inhibition in test [1] turned out to be 6.87%; in test [2], 15.3%; in test [3], 20.2%; in test [4], 15%; in test [5], 67.5%; in test [6], 1.85%. For the same compound, the inhibition in test [7] is 41.5%; in test [8] it was -0.74%.
Take `CC(C)(C)c1cc(NC(=O)Nc2ccc(Oc3ccncc3)cc2)no1`: the inhibition was 59.1% in test [1]; -0.09% in test [2]; 95.5% in test [3]; 11.2% in test [4]; 90.7% in test [5]; 90.4% in test [6]. The inhibition in test [7] is 94.8%; in test [8], -2.01%.
As for `CS(=O)(=O)c1cccc(Nc2nccc(-c3sc(N4CCOCC4)nc3-c3cccc(NS(=O)(=O)c4c(F)cccc4F)c3)n2)c1`, the inhibition in test [1] stood at 14.8%; in test [2], 10.9%; in test [3], 58%; in test [4] it was 10.5%; in test [5] it was 100%; in test [6], 43.6%. Besides, the results for the inhibition in test [7] and in test [8] were 100% and -2.12%, respectively.
